In patent publication US11407736B2 (priority 2019, dated 2022):
Read-outs that look alike come from different tables or passages of the source.

Columns and labels:
[1] = system: L929 cells; test: L929 cell necroptosis assay (TNFa + zVAD, CellTiter-Glo); format: cell-based, murine; settings: TNFa + zVAD, read-out: L929-CTG-recovery, L929, TNFa + zVAD (IC50)
In short: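 Necroptosis was read as CellTiter-Glo luminescence 18 hours after TNFa stimulation at 37° C, 5% CO2. Prior to that, L929 cells (10K/well, plated 18 h) received fresh medium with 40 uM zVAD-fmk plus 4-fold serially diluted compound.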

[2] = system: U937 cells; test: U937 cell necroptosis assay (TNFa + zVAD, CellTiter-Glo); format: cell-based, human; settings: TNFa + zVAD, read-out: U937 Zvad TNF CTG Recovery, U937, TNFa + zVAD (IC50)
In short: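 Necroptosis was induced with TNFa at 2 ng/mL final for 18 h at 37 °C, following 1 h compound pre-incubation in the presence of zVAD-fmk (60 uM for U937 plating medium, 40 uM for L929 medium). Luminescent CellTiter-Glo signal gave relative cell survival.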

[3] = target: RIPK1 (Homo sapiens (Human), UniProt Q13546); test: RIPK1 ADP-Glo biochemical kinase assay
Method: The final reaction volume was 5.0ul.
Adding 5 μl of ADP-Glo™ terminated the reaction.

[4] = Homo sapiens, U-937, U937 cells
[5] = read-out: RIPK1 ADP-Glo Kinase (IC50)

Sequence of RIPK1 (Q13546 whole entry, species assumed): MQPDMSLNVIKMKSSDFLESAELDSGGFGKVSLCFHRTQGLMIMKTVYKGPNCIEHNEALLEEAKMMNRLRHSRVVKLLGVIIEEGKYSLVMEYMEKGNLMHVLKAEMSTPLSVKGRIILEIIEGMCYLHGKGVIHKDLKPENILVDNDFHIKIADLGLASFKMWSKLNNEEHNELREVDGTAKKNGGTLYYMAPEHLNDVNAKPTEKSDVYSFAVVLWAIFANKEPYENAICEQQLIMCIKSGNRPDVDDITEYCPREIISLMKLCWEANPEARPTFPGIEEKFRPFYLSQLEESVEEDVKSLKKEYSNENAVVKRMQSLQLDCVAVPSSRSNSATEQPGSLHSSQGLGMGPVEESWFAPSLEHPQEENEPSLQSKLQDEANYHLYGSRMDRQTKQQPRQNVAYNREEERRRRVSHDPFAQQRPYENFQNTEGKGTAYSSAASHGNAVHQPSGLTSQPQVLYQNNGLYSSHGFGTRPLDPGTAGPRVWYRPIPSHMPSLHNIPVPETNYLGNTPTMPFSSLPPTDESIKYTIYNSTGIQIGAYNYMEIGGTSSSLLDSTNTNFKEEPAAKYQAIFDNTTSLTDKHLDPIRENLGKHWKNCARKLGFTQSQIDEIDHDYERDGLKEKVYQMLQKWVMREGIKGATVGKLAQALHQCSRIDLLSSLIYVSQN

SMILES | IC50 ([1]; Mus musculus, L929, L929 cells) [nM] | IC50 [2, 4] [nM] | IC50 [3, 5] [nM] | IC50 [3] [nM] | IC50 ([1]; L929 cells) [nM] | IC50 ([2]; U937 cells) [nM]
CN1C(=O)[C@@H](NC(=O)c2ncn(Cc3c(Cl)cccc3Cl)n2)COc2ccc(CN3CCN(c4ccncc4)CC3)cc21 [Compound I-21, (S)-1-(2,6-dichlorobenzyl)-N-(5-methyl-4-oxo-7-((4-(pyridin-4-yl)piperazin-1-yl)methyl)-2,3,4,5-tetrahydrobenzo[b][1,4]oxazepin-3-yl)-1H-1,2,4-triazole-3-carboxamide] | 1310 | 2.5 | 77 |  |  | 
CN1C(=O)[C@@H](NC(=O)c2n[nH]c(Cc3ccccc3)n2)COc2ccc(/C=C/C(=O)N3CCCC3)cc21 [Compound I-22, (S,E)-5-benzyl-N-(5-methyl-4-oxo-7-(3-oxo-3-(pyrrolidin-1-yl)prop-1-en-1-yl)-2,3,4,5-tetrahydrobenzo[b][1,4]oxazepin-3-yl)-1H-1,2,4-triazole-3-carboxamide] | 3380 | 4.8 | 48 |  |  | 
CN1C(=O)[C@@H](NC(=O)c2n[nH]c(Cc3ccccc3)n2)COc2ccc(/C=C/C(=O)NC3CC3)cc21 [Compound I-23, (S,E)-5-benzyl-N-(7-(3-(cyclopropylamino)-3-oxoprop-1-en-1-yl)-5-methyl-4-oxo-2,3,4,5-tetrahydrobenzo[b][1,4]oxazepin-3-yl)-1H-1,2,4-triazole-3-carboxamide] | 14500 | 6.7 | 35.2 |  |  | 
CN1C(=O)[C@@H](NC(=O)c2n[nH]c(Cc3ccccc3)n2)COc2ccc(CN3CCn4ncnc4C3)cc21 [Compound I-24, (S)-5-benzyl-N-(7-((5,6-dihydro-[1,2,4]triazolo[1,5-a]pyrazin-7(8H)-yl)methyl)-5-methyl-4-oxo-2,3,4,5-tetrahydrobenzo[b][1,4]oxazepin-3-yl)-1H-1,2,4-triazole-3-carboxamide] | 4610 | 3.6 | 59.2 |  |  | 
CN1C(=O)[C@@H](NC(=O)c2ncn(Cc3ccccc3)n2)COc2ccc(CN3CCn4ncnc4C3)cc21 [Compound I-25, (S)-1-benzyl-N-(7-((5,6-dihydro-[1,2,4]triazolo[1,5-a]pyrazin-7(8H)-yl)methyl)-5-methyl-4-oxo-2,3,4,5-tetrahydrobenzo[b][1,4]oxazepin-3-yl)-1H-1,2,4-triazole-3-carboxamide] | 490 | 2.7 | 51 |  |  | 
CN1C(=O)[C@@H](NC(=O)c2ncn(Cc3ccccc3)n2)COc2ccc(CCC(=O)NC3CC3)cc21 [Compound I-26, (S)-1-benzyl-N-(7-(3-(cyclopropylamino)-3-oxopropyl)-5-methyl-4-oxo-2,3,4,5-tetrahydrobenzo[b][1,4]oxazepin-3-yl)-1H-1,2,4-triazole-3-carboxamide] | 613 | 4.4 | 65.6 |  |  | 
CN1C(=O)[C@@H](NC(=O)c2n[nH]c(Cc3ccccc3)n2)COc2ccc(CCC(C)(C)O)cc21 [Compound I-28, (S)-5-benzyl-N-(7-(3-hydroxy-3-methylbutyl)-5-methyl-4-oxo-2,3,4,5-tetrahydrobenzo[b][1,4]oxazepin-3-yl)-1H-1,2,4-triazole-3-carboxamide] | 674 | 5.4 | 37.5 |  |  | 
CN1C(=O)[C@@H](NC(=O)c2ncn(Cc3ccccc3)n2)COc2ccc(C#CC(C)(C)O)cc21 [Compound I-29, (S)-1-benzyl-N-(7-(3-hydroxy-3-methylbut-1-yn-1-yl)-5-methyl-4-oxo-2,3,4,5-tetrahydrobenzo[b][1,4]oxazepin-3-yl)-1H-1,2,4-triazole-3-carboxamide] | 8.8 | 2.3 | 12.4 |  |  | 
CN1C(=O)[C@@H](NC(=O)c2n[nH]c(Cc3ccccc3)n2)COc2ccc(C#CC(C)(C)O)cc21 [Compound I-30, (S)-5-benzyl-N-(7-(3-hydroxy-3-methylbut-1-yn-1-yl)-5-methyl-4-oxo-2,3,4,5-tetrahydrobenzo[b][1,4]oxazepin-3-yl)-1H-1,2,4-triazole-3-carboxamide] | 72.3 | 3.6 |  | 40.2 |  | 
CN1C(=O)[C@@H](NC(=O)c2ncn(Cc3ccccc3)n2)COc2ccc(CCC(N)=O)cc21 [Compound I-32, (S)—N-(7-(3-amino-3-oxopropyl)-5-methyl-4-oxo-2,3,4,5-tetrahydrobenzo[b][1,4]oxazepin-3-yl)-1-benzyl-1H-1,2,4-triazole-3-carboxamide] | 17700 | 2.7 | 21.9 |  |  | 
CN1C(=O)[C@@H](NC(=O)c2ncn(Cc3ccccc3)n2)COc2ccc(CCC(=O)N3CCCC3)cc21 [Compound I-33, (S)-1-benzyl-N-(5-methyl-4-oxo-7-(3-oxo-3-(pyrrolidin-1-yl)propyl)-2,3,4,5-tetrahydrobenzo[b][1,4]oxazepin-3-yl)-1H-1,2,4-triazole-3-carboxamide] | 1230 | 1.5 | 14.5 |  |  | 
CN1C(=O)[C@@H](NC(=O)c2n[nH]c(Cc3ccc(F)cc3F)n2)COc2ccc(CCC(=O)N3CCCC3)cc21 [Compound I-34, (S)-5-(2,4-difluorobenzyl)-N-(5-methyl-4-oxo-7-(3-oxo-3-(pyrrolidin-1-yl)propyl)-2,3,4,5-tetrahydrobenzo[b][1,4]oxazepin-3-yl)-1H-1,2,4-triazole-3-carboxamide] | 9590 | 22.2 | 49.2 |  |  | 
CN1C(=O)[C@@H](NC(=O)c2n[nH]c(Cc3ccccc3)n2)COc2ccc(C#CCCCO)cc21 [Compound I-35, (S)-5-benzyl-N-(7-(5-hydroxypent-1-yn-1-yl)-5-methyl-4-oxo-2,3,4,5-tetrahydrobenzo[b][1,4]oxazepin-3-yl)-1H-1,2,4-triazole-3-carboxamide] | 17.8 | 3.1 | 22.3 |  |  | 
CN1C(=O)[C@@H](NC(=O)c2n[nH]c(Cc3ccccc3)n2)COc2ccc(C#CC(C)(C)O)cc21 [Compound I-36, (S)-5-benzyl-3-((7-(3-hydroxy-3-methylbut-1-yn-1-yl)-5-methyl-4-oxo-2,3,4,5-tetrahydrobenzo[b][1,4]oxazepin-3-yl)carbamoyl)-1,2,4-triazol-1-ide] |  |  | 33.8 |  | 1.4 | 2.2
CN1C(=O)[C@@H](NC(=O)c2ncn(Cc3ccccc3)n2)COc2ccc(C#CCCOc3ccc4ncccc4c3)cc21 [Compound I-37, (S)-1-benzyl-N-(5-methyl-4-oxo-7-(4-(quinolin-6-yloxy)but-1-yn-1-yl)-2,3,4,5-tetrahydrobenzo[b][1,4]oxazepin-3-yl)-1H-1,2,4-triazole-3-carboxamide] | 0.2 | 1 | 56.5 |  |  | 
CN1C(=O)[C@@H](NC(=O)c2n[nH]c(Cc3ccccc3)n2)COc2ccc(C#CCCOc3ccc4ncccc4c3)cc21 [Compound I-38, (S)-5-benzyl-N-(5-methyl-4-oxo-7-(4-(quinolin-6-yloxy)but-1-yn-1-yl)-2,3,4,5-tetrahydrobenzo[b][1,4]oxazepin-3-yl)-1H-1,2,4-triazole-3-carboxamide] | 0.5 | 3.6 | 68 |  |  | 
CN1C(=O)[C@@H](NC(=O)c2ncn(Cc3ccccc3)n2)COc2ccc(CN3CCn4nc(C(F)(F)F)nc4C3)cc21 [Compound I-39, (S)-1-benzyl-N-(5-methyl-4-oxo-7-((2-(trifluoromethyl)-5,6-dihydro-[1,2,4]triazolo[1,5-a]pyrazin-7(8H)-yl)methyl)-2,3,4,5-tetrahydrobenzo[b][1,4]oxazepin-3-yl)-1H-1,2,4-triazole-3-carboxamide] | 0.4 | 2.7 | 36.4 |  |  | 
CN1C(=O)[C@@H](NC(=O)c2n[nH]c(Cc3ccccc3)n2)COc2ccc(CN3CCn4nc(C(F)(F)F)nc4C3)cc21 [Compound I-40, (S)-5-benzyl-N-(5-methyl-4-oxo-7-((2-(trifluoromethyl)-5,6-dihydro-[1,2,4]triazolo[1,5-a]pyrazin-7(8H)-yl)methyl)-2,3,4,5-tetrahydrobenzo[b][1,4]oxazepin-3-yl)-1H-1,2,4-triazole-3-carboxamide] | 0.3 | 2.3 | 88.7 |  |  | 
CN1C(=O)[C@@H](NC(=O)c2n[nH]c(Cc3ccccc3)n2)COc2ccc(C#CCCOc3ccc4cccnc4c3)cc21 [Compound I-41, (S)-5-benzyl-N-(5-methyl-4-oxo-7-(4-(quinolin-7-yloxy)but-1-yn-1-yl)-2,3,4,5-tetrahydrobenzo[b][1,4]oxazepin-3-yl)-1H-1,2,4-triazole-3-carboxamide] | 1.6 | 5.2 | 80 |  |  | 
CN1C(=O)[C@@H](NC(=O)c2ncn(Cc3ccccc3)n2)COc2ccc(C#CCCOc3ccc4cccnc4c3)cc21 [Compound I-42, (S)-1-benzyl-N-(5-methyl-4-oxo-7-(4-(quinolin-7-yloxy)but-1-yn-1-yl)-2,3,4,5-tetrahydrobenzo[b][1,4]oxazepin-3-yl)-1H-1,2,4-triazole-3-carboxamide] | 1.2 | 3.3 | 47.7 |  |  | 
CN1C(=O)[C@@H](NC(=O)c2n[nH]c(Cc3ccc(F)cc3F)n2)COc2ccc(C#CC(C)(C)O)cc21 [Compound I-43, (S)-5-(2,4-difluorobenzyl)-N-(7-(3-hydroxy-3-methylbut-1-yn-1-yl)-5-methyl-4-oxo-2,3,4,5-tetrahydrobenzo[b][1,4]oxazepin-3-yl)-1H-1,2,4-triazole-3-carboxamide] | 0.9 | 3.8 | 85.4 |  |  | 
